Laboratory results published in paper PMC5096464 (Journal of the American Chemical Society, 2016).
Residue numbers refer to the chain shown, from its start.

Assays:
WT PafA = molecular target: T1, WT PafA (Elizabethkingia meningoseptica, UniProt Q9KJX5); test: biochemical; conditions: pH 8.0, subsaturating me-pNPP
T1 sequence (Q9KJX5 26-546): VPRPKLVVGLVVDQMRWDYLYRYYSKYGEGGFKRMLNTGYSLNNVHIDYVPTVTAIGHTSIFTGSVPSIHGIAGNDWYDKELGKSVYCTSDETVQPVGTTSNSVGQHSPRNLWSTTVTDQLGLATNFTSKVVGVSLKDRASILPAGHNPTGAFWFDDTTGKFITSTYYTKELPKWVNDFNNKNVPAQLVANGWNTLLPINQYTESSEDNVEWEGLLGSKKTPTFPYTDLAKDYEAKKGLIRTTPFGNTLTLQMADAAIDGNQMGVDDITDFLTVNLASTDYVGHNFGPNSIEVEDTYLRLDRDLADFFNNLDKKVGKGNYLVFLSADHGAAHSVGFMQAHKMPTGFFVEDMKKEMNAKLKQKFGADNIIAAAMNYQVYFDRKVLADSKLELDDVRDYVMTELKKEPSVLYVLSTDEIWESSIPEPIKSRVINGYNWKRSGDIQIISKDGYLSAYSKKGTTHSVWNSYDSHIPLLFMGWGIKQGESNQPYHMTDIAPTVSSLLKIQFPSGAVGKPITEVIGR

T79S PafA = molecular target: T2, T79S PafA (Elizabethkingia meningoseptica, UniProt Q9KJX5, T79S); test: biochemical; conditions: pH 8.0, subsaturating me-pNPP
T2 sequence (Q9KJX5 26-546 T79S): T1 sequence (Q9KJX5 26-546) with T54S

N100A PafA = molecular target: T3, N100A PafA (Elizabethkingia meningoseptica, UniProt Q9KJX5, N100A); test: biochemical; conditions: pH 8.0, subsaturating me-pNPP
T3 sequence (Q9KJX5 26-546 N100A): T1 sequence (Q9KJX5 26-546) with N75A

K162A PafA = molecular target: T4, K162A PafA (Elizabethkingia meningoseptica, UniProt Q9KJX5, K162A); test: biochemical; conditions: pH 8.0, subsaturating me-pNPP
T4 sequence (Q9KJX5 26-546 K162A): T1 sequence (Q9KJX5 26-546) with K137A

R164A PafA = molecular target: T5, R164A PafA (Elizabethkingia meningoseptica, UniProt Q9KJX5, R164A); test: biochemical; conditions: pH 8.0, subsaturating me-pNPP
T5 sequence (Q9KJX5 26-546 R164A): T1 sequence (Q9KJX5 26-546) with R139A

EcAP [1] = conditions: EcAP vs PafA
EcAP [2] = conditions: ref 39 and 57; cited from earlier work

SMILES	Ki (WT PafA) [µM]	Ki (T79S PafA) [µM]	Ki (N100A PafA) [µM]	Ki (K162A PafA) [µM]	Ki (R164A PafA) [µM]	product inhibition of EcAP stronger than that for PafA (EcAP [1])	Ki (product inhibition) (EcAP [2])
[O]=[W](=[O])([OH])[OH] [tungstate]	3.9	280	570	> 13000	1300		
[O]=[V]([OH])([OH])[OH] [vanadate]	0.67	90	190	79	300		
O=P(O)(O)O [Pi, inorganic phosphate]	830	9.6	1300	4700	> 13000	more than 3 orders of magnitude	low micromolar
